Source: patent US9814739B2, “2′-ethynyl nucleoside derivatives for treatment of viral infections” (priority 2012, dated 2017)
Read-outs that look alike come from different tables or passages of the source.

What was measured:
Dengue virus = experiment: Dengue assay on cryopreserved PBMC cells (plaque reduction readout on BHK cells); type: cell-based; conditions: Dengue virus, PBMC, 48 h, human PBMC cells
Protocol: Cryopreserved human PBMC cells were purchased from approved vendors. It was then thawed according to manufacturer's instructions and suspended in RPMI medium supplemented with 1% penicillin/streptomycin solution and 10% Fetal Calf serum. The cells were then counted and viability checked (viability should be at least 70%). After centrifuging and removing the media, the cells were diluted to 1×10^7 cells/mL in RPMI medium supplemented with 1% penicillin/streptomycin. 50 μl of the cells were then dispensed into 96-well tissue culture plate constituting 5×10^5 cells/well. Next, virus with humanized 4G2 mixture was prepared for infection. Briefly, virus (2×10^7 pfu/ml) was mixed with humanized 4G2 antibody with the final antibody concentration of 0.38 μg/ml and incubated for 30 minutes at 4° C. to assist virus/antibody complex formation. The virus-antibody complex was then added to the PBMC at multiplicity of infection (M.O.I) of 0.5. The resulting media was then and further incubated the plates at 37° C. in the humidified incubator for infection to take place. Serial diluted compounds were then added and finally media was added such that the final media volume was 200 μl with 2% Fetal Calf Serum. The plates were then incubated at 37° C., 5% CO2 for another 48 hours. The extent of the infection and compound inhibition was measured by plaque reduction assay using BHK cells. Briefly, BHK cells grown in 24-well tissue culture were subjected to supernatants derived from infection containing serial diluted compounds. After additional 4 days, the monolayer of BHK cells were fixed, stained with crystal violet stain and plaques counted. Dose response curves were plotted from the mean absorbance (n=3) versus the log of the concentration of test compounds. The EC50 is calculated by nonlinear regression analysis. A positive control (7-deaza-2′-C-acetylene-adenosine) was used to ensure the quality of the data.

[1] = 4 day CCK-8 cytotoxicity assay using THP-1 cells; type: cell-based; conditions: human, read-out: Dengue CC50 (THP-1)
Protocol: 3) Protocols for Automated 4 Days CCK8 (Dojindo) Cytotoxicity Assay in HepG2 and THP-1 Cells • 1. 25 μL of HepG2 suspension containing 1.6×10^4 cells/ml (400 cells/well) or 25 μL of THP-1 suspension containing 8×10^4 cells/ml (2000 cells/well) was dispensed into a clear 384-well plate by GNF dispenser 2B vertical-head. • 2. The plate was pre-incubated for 24 h in the GNF incubator (humidified, 37° C., 5% CO2). • 3. Serial-diluted compound were directly transferred into the culture media in the plate (200× dilution). • 4. Plates were incubated for 96 hours in the GNF incubator. • 5. CCK-8 was thawed on the bench-top, and was pre-diluted with media (2.5× dilutions). • 6. 35 μL of 2.5× diluted CCK8 was added to each well of the plate by GNF dispenser 1C angled-head. • 7. The plates were incubated for 3 hours in the incubator. • 8. The absorbance at 450 nm was measured by Envision. Dengue Assay on Cryopreserved PBMC Cells
THP-1 cells grown in suspension were counted and diluted to 8×10^4 cells/ml in RPMI-1640 media supplemented with 10% fetal bovine serum and 1% penicillin/streptomycin. 25 ul of the THP-1 containing media consisting of 2000 cells were dispensed in 384-well tissue culture plate and pre-incubated at room temperature for 30 minutes, followed by 37° C., 5% CO2 overnight in the humidified incubator. On the next day, serial-diluted compound plates were prepared and 125 nl of compounds at various concentrations were then dispensed into the tissue culture well (200× dilution). The plates were then transferred to 37° C., 5% CO2 humidified incubator for additional 96 hours. Cytotoxicity was measured by CCK-8 assay. Briefly, CCK-8 was thawed on bench top and diluted 2.5× with the growth media. 35 ul of the pre-diluted CCK-8 was then introduced into each well and the plates were then further incubated in 37° C., 5% CO2 humidified incubator for 3 hours. The absorbance was read by Envision at 450 nm. Dose response curves were plotted from the mean absorbance (n=2) versus the log of the concentration of test compounds. The EC50 is calculated by nonlinear regression analysis. A positive control (puromycin) was used to ensure the quality of the data.

[2] = tested on: GT1b HCV luciferase replicon; experiment: HCV replicon antiviral EC50 assay; type: cell-based, Hepatitis C virus
in vitro = conditions: HCV GT1b CC50 (uM)
[3] = tested on: Replicon cells, expressing the GT1b HCV luciferase replicon
[4] = Hepatitis C virus, GT1B, 72 h, read-out: HCV GT1b EC50 (uM)

Compound	EC50 (Dengue virus) [µM]	CC50 at 96 h [1] [µM]	EC50 [2, 4] [µM]	CC50 (in vitro) [µM]	EC50 ([2]; read-out: HCV GT1b EC50) [µM]	CC50 [3] [µM]
C#C[C@@]1(O)[C@H](O)[C@@H](COP(=O)(N[C@@H](C)C(=O)OC2CCCCC2)Oc2ccc(Cl)cc2)O[C@H]1n1ccc(=O)[nH]c1=O (stereo partly drawn) [Example 1.7, (2S)-cyclohexyl 2-(((4-chlorophenoxy)(((2R,3R,4R,5R)-5-(2,4-dioxo-3,4-dihydropyrimidin-1(2H)-yl)-4-ethynyl-3,4-dihydroxytetrahydrofuran-2-yl)methoxy)phosphoryl)amino)propanoate]	0.17	13	0.087	> 25		
C#C[C@@]1(O)[C@H](O)[C@@H](COP(=O)(N[C@@H](C)C(=O)OC(CC)CC)Oc2ccc(Cl)cc2)O[C@H]1n1ccc(=O)[nH]c1=O (stereo partly drawn) [Example 1.4, (2S)-pentan-3-yl 2-(((4-chlorophenoxy)(((2R,3R,4R,5R)-5-(2,4-dioxo-3,4-dihydropyrimidin-1(2H)-yl)-4-ethynyl-3,4-dihydroxytetrahydrofuran-2-yl)methoxy)phosphoryl)amino)propanoate]	0.06	> 50	0.087	> 25		
C#C[C@@]1(O)[C@H](O)[C@@H](COP(=O)(N[C@@H](C)C(=O)OC2CCCC2)Oc2ccccc2)O[C@H]1n1ccc(=O)[nH]c1=O (single isomer, unassigned) [1.31 (peak 1)]					0.024	> 25
C#C[C@@]1(O)[C@H](O)[C@@H](COP(=O)(N[C@@H](C)C(=O)OCOC(C)=O)Oc2ccccc2)O[C@H]1n1ccc(=O)[nH]c1=O (single isomer, unassigned) [1.17 (peak 1)]					6.8	> 25
C#C[C@@]1(O)[C@H](O)[C@@H](COP(=O)(N[C@@H](C)C(=O)OCc2ccccc2)Oc2ccc(Cl)cc2)O[C@H]1n1ccc(=O)[nH]c1=O (stereo partly drawn) [Example 1.5, (2S)-benzyl 2-(((4-chlorophenoxy)(((2R,3R,4R,5R)-5-(2,4-dioxo-3,4-dihydropyrimidin-1(2H)-yl)-4-ethynyl-3,4-dihydroxytetrahydrofuran-2-yl)methoxy)phosphoryl)amino)propanoate]	0.06	8.3	0.131	> 25		
C#C[C@@]1(O)[C@H](O)[C@@H](COP(=O)(N[C@@H](C)C(=O)OC(C)C)Oc2ccccc2)O[C@H]1n1ccc(OC)nc1=O (single isomer, unassigned) [1.28 (peak 1)]					> 100	> 25
C#C[C@@]1(O)[C@H](O)[C@@H](COP(=O)(N[C@@H](C)C(=O)O[C@H](C)CC)Oc2ccc(Cl)cc2)O[C@H]1n1ccc(=O)[nH]c1=O (stereo partly drawn) [Example 1.3, (2S)-(R)-sec-butyl 2-(((4-chlorophenoxy)(((2R,3R,4R,5R)-5-(2,4-dioxo-3,4-dihydropyrimidin-1(2H)-yl)-4-ethynyl-3,4-dihydroxytetrahydrofuran-2-yl)methoxy)phosphoryl)amino)propanoate]	0.06	16	0.095	> 25		
C#C[C@@]1(O)[C@H](O)[C@@H](COP(=O)(NCC(=O)OC(C)C)Oc2ccc(Cl)cc2)O[C@H]1n1ccc(=O)[nH]c1=O (stereo partly drawn) [Example 1.6, isopropyl 2-(((4-chlorophenoxy)(((2R,3R,4R,5R)-5-(2,4-dioxo-3,4-dihydropyrimidin-1(2H)-yl)-4-ethynyl-3,4-dihydroxytetrahydrofuran-2-yl)methoxy)phosphoryl)amino)acetate]	0.17	> 50	0.152	> 25		
C#C[C@@]1(O)[C@H](O)[C@@H](COP(=O)(N[C@@H](CCC)C(=O)OC(C)C)Oc2ccccc2)O[C@H]1n1ccc(=O)[nH]c1=O (single isomer, unassigned) [1.24 (peak 1)]					0.89	> 25
C#C[C@@]1(O)[C@H](O)[C@@H](COP(=O)(N[C@@H](C)C(=O)OC2CCOCC2)Oc2ccccc2)O[C@H]1n1ccc(=O)[nH]c1=O (single isomer, unassigned) [1.14 (peak 1)]					1.15	> 25
C#C[C@@]1(O)[C@H](O)[C@@H](COP(=O)(N[C@@H](C)C(=O)O[C@@H](C)CC)Oc2ccccc2)O[C@H]1n1ccc(=O)[nH]c1=O (single isomer, unassigned) [1.13 (peak 1)]					0.302	> 25
C#C[C@@]1(O)[C@H](O)[C@@H](COP(=O)(N[C@@H](C)C(=O)OC(CC)CC)Oc2ccccc2)O[C@H]1n1ccc(=O)[nH]c1=O (single isomer, unassigned) [1.16 (peak 1)]					0.34	> 25
CC#C[C@@]1(O)[C@H](O)[C@@H](COP(=O)(N[C@@H](C)C(=O)OC(C)C)Oc2ccccc2)O[C@H]1n1ccc(=O)[nH]c1=O (stereo partly drawn) [Example 1.1, (2S)-isopropyl 2-(((((2R,3R,4R,5R)-5-(2,4-dioxo-3,4-dihydropyrimidin-1(2H)-yl)-3,4-dihydroxy-4-(prop-1-yn-1-yl)tetrahydrofuran-2-yl)methoxy)(phenoxy)phosphoryl)amino)propanoate]	0.97	48	0.243	> 25		
C#C[C@@]1(O)[C@H](O)[C@@H](COP(=O)(N[C@@H](Cc2ccccc2)C(=O)OC(C)C)Oc2ccccc2)O[C@H]1n1ccc(=O)[nH]c1=O (single isomer, unassigned) [1.10 (peak 1)]					2.87	> 25
C#C[C@@]1(O)[C@H](O)[C@@H](COP(=O)(N[C@@H](C)C(=O)OC(C)C)Oc2ccccc2)O[C@H]1n1ccc(N)nc1=O (single isomer, unassigned) [1.30 (peak 1)]					44.9	> 25
C#C[C@@]1(O)[C@H](O)[C@@H](COP(=O)(N[C@@H](C)C(=O)OC2CCC2)Oc2ccccc2)O[C@H]1n1ccc(=O)[nH]c1=O (single isomer, unassigned) [1.11 (peak 1)]					0.1	> 25
C#C[C@@]1(O)[C@H](O)[C@@H](COP(=O)(N[C@@H](C)C(=O)OCC)Oc2ccccc2)O[C@H]1n1ccc(=O)[nH]c1=O (single isomer, unassigned) [1.36 (peak 1)]					0.103	> 25
C#C[C@@]1(O)[C@H](O)[C@@H](COP(=O)(N[C@@H](C)C(=O)OC)Oc2ccccc2)O[C@H]1n1ccc(=O)[nH]c1=O (single isomer, unassigned) [1.35 (peak 1)]					0.294	> 25
C#C[C@@]1(O)[C@H](O)[C@@H](COP(=O)(NC(C)(C)C(=O)OCC)Oc2ccccc2)O[C@H]1n1ccc(=O)[nH]c1=O (single isomer, unassigned) [1.37 (peak 1)]					0.367	> 25
C#C[C@@]1(O)[C@H](O)[C@@H](COP(=O)(N[C@@H](C)C(=O)OC(CCC)CCC)Oc2ccccc2)O[C@H]1n1ccc(=O)[nH]c1=O (single isomer, unassigned) [1.34 (peak 1)]					0.301	> 25
C#C[C@@]1(O)[C@H](O)[C@@H](COP(=O)(NC(C)(C)C(=O)OC(C)C)Oc2ccccc2)O[C@H]1n1ccc(=O)[nH]c1=O (single isomer, unassigned) [1.39 (peak 1)]					1.5	> 25
